Patent US6339045B1, “N-(unsubstituted or substituted)-4-substituted-6-(unsubstituted or substituted)phenoxy-2-pyridinecarboxamides or thiocarboxamides, processes for producing the same, and herbicides” (Kureha Kagaku Kogyo Kabushiki Kaisha, priority 1995, dated 2002)

How the values were obtained:
Test in all cases: Herbicidal effect by foliage and soil treatment
Format in all cases: in vivo
Conditions in all cases: 10 g ai/10a, evaluated after 14 days
[1] = tested on: velvetleaf (Abutilon theophrasti)
Outline: (§1)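 Greenhouse pot test at 19–25 °C: spray of aqueous Tween 20 formulation onto foliage and soil of seedlings at cotyledonal–bifoliate stage, dose per area predetermined. Scoring on a rating scale after 14 days versus untreated.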

[2] = tested on: ivyleafspeedwell (Veronica hederaefolia)
Outline: as §1

[3] = tested on: wild chamomile (Matricaria chamomilla)
Outline: as §1

[4] = tested on: sicklepod (Cassia obtusifolia)
Outline: as §1

[5] = tested on: redroot pigweed (Amaranthus retroflexus)
Outline: as §1

[6] = tested on: common blackjack (Bidens pilosa)
Outline: as §1

[7] = tested on: common chickweed (Stellaria media)
Outline: as §1

[8] = tested on: black nightshade (Solanum nigrum)
Outline: as §1

[9] = tested on: cleavers (Galium aparine)
Outline: as §1

[10] = tested on: field bindweed (Convolvulus arvensis)
Outline: as §1

[11] = tested on: kediock (Sinapis arvensis)
Outline: as §1

Row | SMILES | herbicidal activity rating, AT (Abutilon theophrasti) [1] | herbicidal activity rating, VH (Veronica hederaefolia) [2] | herbicidal activity rating, MC (Matricaria chamomilla) [3] | herbicidal activity rating, CO (Cassia obtusifolia) [4] | herbicidal activity rating, AR (Amaranthus retroflexus) [5] | herbicidal activity rating, BP (Bidens pilosa) [6] | herbicidal activity rating, SM (Stellaria media) [7] | herbicidal activity rating, SN (Solanum nigrum) [8] | herbicidal activity rating, GA (Galium aparine) [9] | herbicidal activity rating, CA (Convolvulus arvensis) [10] | herbicidal activity rating, SA (Sinapis arvensis) [11]
1 | CCC(C)NC(=O)c1cc(OC)cc(Oc2cccc(C(F)(F)F)c2)n1 (stereo not drawn) [Compound I-73] | 5 (percentage of weeds killed was not less than 80%) | 5 (percentage of weeds killed was not less than 80%) | 4 (percentage of weeds killed was not less than 60% and less than 80%) | 5 (percentage of weeds killed was not less than 80%) | 5 (percentage of weeds killed was not less than 80%) | 4 (percentage of weeds killed was not less than 60% and less than 80%) | 5 (percentage of weeds killed was not less than 80%) | 5 (percentage of weeds killed was not less than 80%) | 5 (percentage of weeds killed was not less than 80%) | 5 (percentage of weeds killed was not less than 80%) | 5 (percentage of weeds killed was not less than 80%)
2 | COc1cc(Oc2cccc(C(F)(F)F)c2)nc(C(=O)NCCF)c1 [Compound I-74] | 5 (percentage of weeds killed was not less than 80%) | 5 (percentage of weeds killed was not less than 80%) | 5 (percentage of weeds killed was not less than 80%) | 5 (percentage of weeds killed was not less than 80%) | 5 (percentage of weeds killed was not less than 80%) | 5 (percentage of weeds killed was not less than 80%) | 5 (percentage of weeds killed was not less than 80%) | 5 (percentage of weeds killed was not less than 80%) | 5 (percentage of weeds killed was not less than 80%) | 5 (percentage of weeds killed was not less than 80%) | 5 (percentage of weeds killed was not less than 80%)
3 | COCCCNC(=O)c1cc(OC)cc(Oc2cccc(C(F)(F)F)c2)n1 [Compound I-75] | 3 (percentage of weeds killed was not less than 40% and less than 60%) | 5 (percentage of weeds killed was not less than 80%) | 4 (percentage of weeds killed was not less than 60% and less than 80%) | 5 (percentage of weeds killed was not less than 80%) | 5 (percentage of weeds killed was not less than 80%) | 3 (percentage of weeds killed was not less than 40% and less than 60%) | 5 (percentage of weeds killed was not less than 80%) | 5 (percentage of weeds killed was not less than 80%) | 5 (percentage of weeds killed was not less than 80%) | 4 (percentage of weeds killed was not less than 60% and less than 80%) | 5 (percentage of weeds killed was not less than 80%)
4 | COc1cc(Oc2cccc(C(F)(F)F)c2)nc(C(=O)NCCCSC)c1 [Compound I-76] | 3 (percentage of weeds killed was not less than 40% and less than 60%) | 5 (percentage of weeds killed was not less than 80%) | 5 (percentage of weeds killed was not less than 80%) | 5 (percentage of weeds killed was not less than 80%) | 5 (percentage of weeds killed was not less than 80%) | 4 (percentage of weeds killed was not less than 60% and less than 80%) | 4 (percentage of weeds killed was not less than 60% and less than 80%) | 5 (percentage of weeds killed was not less than 80%) | 5 (percentage of weeds killed was not less than 80%) | 3 (percentage of weeds killed was not less than 40% and less than 60%) | 5 (percentage of weeds killed was not less than 80%)
5 | COc1cc(Oc2cccc(C(F)(F)F)c2)nc(C(=O)NCCCS(C)(=O)=O)c1 [Compound I-77] | 5 (percentage of weeds killed was not less than 80%) | 5 (percentage of weeds killed was not less than 80%) | 3 (percentage of weeds killed was not less than 40% and less than 60%) | 5 (percentage of weeds killed was not less than 80%) | 5 (percentage of weeds killed was not less than 80%) | 4 (percentage of weeds killed was not less than 60% and less than 80%) | 4 (percentage of weeds killed was not less than 60% and less than 80%) | 5 (percentage of weeds killed was not less than 80%) | 5 (percentage of weeds killed was not less than 80%) | 4 (percentage of weeds killed was not less than 60% and less than 80%) | 5 (percentage of weeds killed was not less than 80%)
6 | COc1cc(Oc2cccc(C(F)(F)F)c2)nc(C(=O)NCCCCl)c1 [Compound I-79] | 5 (percentage of weeds killed was not less than 80%) | 5 (percentage of weeds killed was not less than 80%) | 5 (percentage of weeds killed was not less than 80%) | 5 (percentage of weeds killed was not less than 80%) | 5 (percentage of weeds killed was not less than 80%) | 5 (percentage of weeds killed was not less than 80%) | 5 (percentage of weeds killed was not less than 80%) | 5 (percentage of weeds killed was not less than 80%) | 5 (percentage of weeds killed was not less than 80%) | 4 (percentage of weeds killed was not less than 60% and less than 80%) | 5 (percentage of weeds killed was not less than 80%)
